The supplement of paper PMC13380429

Tests used:
Conditions in all cases: 72 h
[1] = test system: Caco-2; assay: cell viability relative to DMSO; higher = less toxic
[2] = test system: HepG2; assay: as above
[3] = test system: U2OS; assay: as above
[4] = test system: Vero E6; assay: as above
[5] = test system: Calu-3; assay: as above
[6] = test system: Caco-2; assay: drug sensitivity score (DSS) for viability; higher = more toxic; extreme values may be limits of the assay
[7] = test system: HepG2; assay: as above
[8] = test system: U2OS; assay: as above
[9] = test system: Vero E6; assay: as above
[10] = test system: Calu-3; assay: as above
[11] = test system: Caco-2; assay: relative viability EC50 (midpoint between 100% and the lowest measured viability); higher = less toxic
[12] = test system: U2OS; assay: as above
[13] = test system: Vero E6; assay: as above
[14] = test system: Calu-3; assay: as above

Row | Structure (SMILES) | cell viability ([1]; 1 nM) [%] | cell viability ([1]; 10 nM) [%] | cell viability ([1]; 100 nM) [%] | cell viability ([1]; 1000 nM) [%] | cell viability ([1]; 10000 nM) [%] | cell viability ([2]; 1 nM) [%] | cell viability ([2]; 10 nM) [%] | cell viability ([2]; 100 nM) [%] | cell viability ([2]; 1000 nM) [%] | cell viability ([2]; 10000 nM) [%] | cell viability ([3]; 1 nM) [%] | cell viability ([3]; 10 nM) [%] | cell viability ([3]; 100 nM) [%] | cell viability ([3]; 1000 nM) [%] | cell viability ([3]; 10000 nM) [%] | cell viability ([4]; 1 nM) [%] | cell viability ([4]; 10 nM) [%] | cell viability ([4]; 100 nM) [%] | cell viability ([4]; 1000 nM) [%] | cell viability ([4]; 10000 nM) [%] | cell viability ([5]; 1 nM) [%] | cell viability ([5]; 10 nM) [%] | cell viability ([5]; 100 nM) [%] | cell viability ([5]; 1000 nM) [%] | cell viability ([5]; 10000 nM) [%] | drug sensitivity score [6] | drug sensitivity score [7] | drug sensitivity score [8] | drug sensitivity score [9] | drug sensitivity score [10] | relative viability EC50 [11] [µM] | relative viability EC50 [12] [µM] | relative viability EC50 [13] [µM] | relative viability EC50 [14] [µM]
1 | O=C1Nc2ccccc2C2(CCN(CCc3ccc(C(F)(F)F)cc3)CC2)O1 | 93.3 | 97.2 | 94.7 | 99.2 | 78.6 | 97.7 | 96.2 | 88.8 | 100 | 58.1 | 100 | 94.9 | 99.8 | 94.7 | 91.2 | 95.6 | 99 | 97.2 | 96.3 | 93.5 | 99.7 | 98.7 | 102 | 108 | 82.4 | 0.8 | 2.1 | 0 | 0 | 0.2 | > 10 | > 10 | > 10 | > 10
2 | CCCC(C)C1(CC)C(=O)NC(=O)NC1=O (stereo not given) [pentobarbital] | 94.8 | 90.8 | 88.3 | 89.1 | 93.9 |  |  |  |  |  | 104 | 97.1 | 99.7 | 93.9 | 99.1 | 102 | 94.4 | 96.5 | 106 | 100 | 106 | 90.3 | 109 | 107 | 94.1 | 0.8 |  | 0 | 0 | 0 | > 10 | > 10 | > 10 | > 10
3 | CC(=O)SC[C@@H](C)C(=O)N1CCC[C@H]1C(=O)N[C@@H](Cc1ccccc1)C(=O)O [alacepril] | 102 | 101 | 94.7 | 108 | 104 |  |  |  |  |  |  |  |  |  |  | 98.3 | 101 | 93 | 98.8 | 99.4 | 106 | 108 | 96.9 | 103 | 99.4 | 0 |  |  | 0 | 0 | > 10 |  | > 10 | > 10
4 | COc1ccc(-c2cc(=S)ss2)cc1 [anethole-trithione] | 99.3 | 96.5 | 100 | 91.9 | 92.2 |  |  |  |  |  | 100 | 98.9 | 99.8 | 97.6 | 103 | 107 | 105 | 95.9 | 102 | 106 | 97.1 | 95.9 | 111 | 108 | 97.3 | 0 |  | 0 | 0 | 0 | > 10 | > 10 | > 10 | > 10
5 | Nc1nc(-c2nn(Cc3ccccc3F)c3ncccc23)ncc1C1CC1 [BAY-41-2272] | 86.5 | 90.5 | 94.1 | 100 | 93.8 | 95.8 | 103 | 95.8 | 104 | 69.2 | 90 | 96.6 | 93.9 | 101 | 105 | 102 | 96.1 | 97.3 | 86 | 66.7 | 100 | 108 | 91.7 | 104 | 110 | 0 | 1.1 | 0 | 2.9 | 0 | > 10 | > 10 |  | > 10
6 | C#CCN(C)[C@H](C)Cc1ccccc1 [selegiline] |  |  |  |  |  |  |  |  |  |  |  |  |  |  |  |  |  |  |  |  |  |  |  |  |  |  | 0 | 0 | 0 | 0 |  |  |  | 
7 | O=C(NN1C(=O)[C@@H]2[C@@H]3C=C[C@@H]([C@H]4C[C@@H]34)[C@@H]2C1=O)c1ccc(C(F)(F)F)cc1 [tecovirimat] | 109 | 104 | 105 | 101 | 94.2 |  |  |  |  |  | 107 | 107 | 107 | 99.6 | 104 | 98.5 | 104 | 93 | 95.3 | 101 | 99.7 | 90.3 | 103 | 98.8 | 100 | 0 |  | 0 | 0 | 0 | > 10 | > 10 | > 10 | > 10
8 | O=c1ncn2nc(Sc3ccc(F)cc3F)ccc2c1-c1c(Cl)cccc1Cl [VX-745] | 107 | 96.5 | 104 | 99.7 | 82.6 |  |  |  |  |  | 102 | 108 | 98.4 | 94.9 | 87.9 | 106 | 105 | 95.8 | 86.1 | 86.1 | 97.1 | 107 | 98.7 | 82.9 | 95 | 0.4 |  | 0.1 | 1.4 | 2.1 | > 10 | > 10 | > 10 | > 10
9 | C/C(=C\C(N)C(=O)O)CP(=O)(O)O (stereo not given) | 102 | 110 | 97.5 | 90 | 101 |  |  |  |  |  | 101 | 96.3 | 97 | 97.1 | 104 |  |  |  |  |  | 95.9 | 98.3 | 104 | 96.2 | 101 | 0 |  | 0 |  | 0 | > 10 | > 10 |  | > 10
10 | CN/C(=N\CCSCc1nc[nH]c1C)NC#N [cimetidine] | 99.8 | 98.7 | 98.7 | 106 | 88.1 |  |  |  |  |  | 101 | 106 | 100 | 104 | 96.4 | 94.5 | 91.7 | 96.9 | 91.3 | 90 | 104 | 106 | 102 | 101 | 88.6 | 0 |  | 0 | 0 | 0 | > 10 | > 10 | > 10 | > 10
11 | C[C@]12CCC(=O)C=C1CC[C@@H]1[C@@H]2CC[C@@]2(C)[C@H]1CC[C@]2(O)C(=O)CO [cortodoxone] | 89.6 | 95.5 | 100 | 86.5 | 103 |  |  |  |  |  | 92.9 | 95.2 | 96.6 | 99.6 | 98.7 | 108 | 108 | 105 | 97.6 | 96.8 | 106 | 91 | 95.2 | 97.8 | 104 | 0 |  | 0 | 0 | 0 | > 10 | > 10 | > 10 | > 10
12 | COC(=O)[C@H](CC(C)C)NC(=O)[C@@H](N)CC(C)C [leucylleucine-methyl-ester] | 98.1 | 102 | 94.5 | 104 | 103 |  |  |  |  |  |  |  |  |  |  |  |  |  |  |  | 98.1 | 107 | 86.9 | 99.6 | 98.5 | 0 |  |  |  | 0 | > 10 |  |  | > 10
13 | Cc1ccc(S(=O)(=O)NC(=O)NN2CCCCCC2)cc1 [tolazamide] | 95.6 | 95 | 102 | 93.8 | 89.7 |  |  |  |  |  | 100 | 97 | 97 | 99.2 | 103 | 98.9 | 86.3 | 95.5 | 98.3 | 107 | 92.2 | 96.2 | 88 | 79.5 | 93.3 | 0 |  | 0 | 0 | 0 | > 10 | > 10 | > 10 | > 10
14 | O=C(Nc1cccnc1)c1cc(-c2ccnc(F)c2)ccc1OCc1ccccc1 | 107 | 110 | 94.8 | 92 | 86.6 |  |  |  |  |  | 95.6 | 100 | 95.1 | 96.3 | 97.3 | 99.3 | 101 | 97.8 | 98 | 95.2 | 94.2 | 102 | 96.5 | 102 | 104 | 0.4 |  | 0 | 0 | 0 | > 10 | > 10 | > 10 | > 10
15 | Cc1ccc2c(=O)c3cccc(CC(=O)O)c3oc2c1C [ASA-404] | 94.6 | 98.6 | 99 | 96 | 93.3 |  |  |  |  |  | 100 | 97.4 | 101 | 99.7 | 103 | 102 | 106 | 102 | 108 | 97.6 | 98 | 86.7 | 105 | 99.4 | 102 | 0 |  | 0 | 0 | 0 | > 10 | > 10 | > 10 | > 10
16 | Fc1cccc(/C=N/N=C/c2cccc(F)c2)c1 [DFB] | 99.5 | 110 | 100 | 102 | 101 |  |  |  |  |  |  |  |  |  |  | 99.9 | 98.7 | 90 | 97.3 | 98.6 | 115 | 111 | 98.8 | 105 | 104 | 0 |  |  | 0 | 0 | > 10 |  | > 10 | > 10
